Test results published in US7157430B2, “(Substituted)acyl dipeptidyl inhibitors of the ICE/CED-3 family of cysteine proteases” (Idun Pharmaceuticals, Inc., priority 1998, dated 2007).
Where a SMILES comes first, the peptide text is derived from it. The star is where a group is joined. Cbz = O=C(OCc1ccccc1)*; CH2F = FC*

Assays:
Format in all cases: biochemical
Conditions in all cases: continuous assay 60 min, reaction initiated by adding enzyme
[1] = target: T1, mICE (Mus musculus, UniProt P29452); assay: Dissociation constant Ki and irreversible rate constant k3 for irreversible inhibitors, ICE
T1 sequence (P29452 123-296 limits assumed): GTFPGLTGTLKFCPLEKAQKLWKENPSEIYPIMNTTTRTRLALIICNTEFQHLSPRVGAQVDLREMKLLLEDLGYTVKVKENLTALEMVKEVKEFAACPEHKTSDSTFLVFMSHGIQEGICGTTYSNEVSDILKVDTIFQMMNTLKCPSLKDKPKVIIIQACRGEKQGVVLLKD
T1 sequence (P29452 315-402 limits assumed): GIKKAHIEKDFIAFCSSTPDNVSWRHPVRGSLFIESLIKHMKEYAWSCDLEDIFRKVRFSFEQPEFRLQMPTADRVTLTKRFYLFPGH
Excerpt: (§1) For the irreversible inhibition of a ICE/ced-3 Family Protease enzyme with a competitive irreversible inhibitor; using the model represented by the following formulas: […]
(§2) The product formation at time t may be expressed as:
(§3) [formula] where E, I, EI and E-I denote the active enzyme, inhibitor, non-covalent enzyme-inhibitor complex and covalent enzyme-inhibitor adduct, respectively. The Ki value is the overall dissociation constant of the reversible binding steps, and k3 is the irreversible rate constant. The [S] and Ks values are the substate concentration and dissociation constant of the substrate bound to the enzyme, respectively. [E]^T is the total enzyme concentration.
(§4) The above equations were used to determine the Ki and k3 values of a given inhibitor bound to a ICE/ced-3 family protease. Thus, a continuous assay was run for sixty minutes at various concentrations of the inhibitor and the substrate. The assay was formulated essentially the same as described above for generating the data in Table 1, except that the reaction was initiated by adding the enzyme to the substrate-inhibitor mixture. The Ki and k3 values were obtained by simulating the product AMC formation as a function of time according to Equation 1.
(§5) The reference compound for this assay was Cbz-ValAlaAsp-CH2F and the values are denoted in Table 2 as “Reference”. The Ki values in Table 2 are in micromolar (μM). The k3/Ki values are in moles^−1 seconds^−1 (M^−1s^−1).

[2] = target: T2, CPP32 (Homo sapiens, UniProt P42574); assay: Dissociation constant Ki and irreversible rate constant k3 for irreversible inhibitors, CPP32
T2 sequence (P42574 29-175 limits assumed): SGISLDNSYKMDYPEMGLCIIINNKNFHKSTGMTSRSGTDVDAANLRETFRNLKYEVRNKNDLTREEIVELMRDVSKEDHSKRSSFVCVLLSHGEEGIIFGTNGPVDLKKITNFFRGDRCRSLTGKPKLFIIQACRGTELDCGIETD
T2 sequence (P42574 176-277 limits assumed): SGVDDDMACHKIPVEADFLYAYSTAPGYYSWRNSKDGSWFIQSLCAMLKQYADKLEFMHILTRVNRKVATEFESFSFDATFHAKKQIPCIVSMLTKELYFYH
Excerpt: as §1, §2, §3, §4, §5

[3] = target: T3, MCH-2 (Homo sapiens, UniProt P55212); assay: Dissociation constant Ki and irreversible rate constant k3 for irreversible inhibitors, Mch2
T3 sequence (P55212 24-179 limits assumed): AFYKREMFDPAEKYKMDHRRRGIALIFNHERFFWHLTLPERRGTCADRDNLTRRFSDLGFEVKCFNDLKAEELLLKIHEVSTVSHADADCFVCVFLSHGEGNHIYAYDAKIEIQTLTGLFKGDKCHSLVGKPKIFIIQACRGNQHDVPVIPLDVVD
T3 sequence (P55212 194-293 limits assumed): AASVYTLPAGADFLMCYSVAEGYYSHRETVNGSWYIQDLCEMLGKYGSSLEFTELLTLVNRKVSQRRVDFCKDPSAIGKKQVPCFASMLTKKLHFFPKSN
Excerpt: as §1, §2, §3, §4, §5

[4] = target: MCH-5 (Homo sapiens, UniProt Q14790); assay: Dissociation constant Ki and irreversible rate constant k3 for irreversible inhibitors, Mch5
Sequence of MCH-5 (Q14790 217-374 limits assumed, species assumed): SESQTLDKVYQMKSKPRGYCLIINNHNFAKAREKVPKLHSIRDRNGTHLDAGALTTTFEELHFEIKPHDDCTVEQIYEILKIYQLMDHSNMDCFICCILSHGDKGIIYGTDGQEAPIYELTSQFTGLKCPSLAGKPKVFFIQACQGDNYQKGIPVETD
Sequence of MCH-5 (Q14790 385-479 limits assumed, species assumed): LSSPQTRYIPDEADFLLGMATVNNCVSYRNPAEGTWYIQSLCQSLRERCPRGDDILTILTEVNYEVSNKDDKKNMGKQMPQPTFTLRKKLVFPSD
Excerpt: as §1, §2, §3, §4, §5

Compound | Ki [1] [nM] | mICE k3/Ki [1] | CPP32 k3/Ki [2] | Ki [2] [nM] | Ki [3] [nM] | MCH-2 k3/Ki [3] | Ki [4] [nM] | MCH-5 k3/Ki [4]
COC(=O)c1cc(OCC(=O)[C@H](CC(=O)O)NC(=O)[C@@H](NC(=O)COc2cccc3ccccc23)C(C)C)no1 [Example 144] | 126 | 42,500 M^−1s^−1 | 144,000 M^−1s^−1 | 54 | 70 | 5,800 M^−1s^−1 | 155 | 6,340 M^−1s^−1
CC(C)C[C@H](NC(=O)COc1ccccc1-c1ccccc1)C(=O)N[C@@H](CC(=O)O)C(=O)COc1c(F)cc(F)cc1F [Example 163] | 415 | 37,800 M^−1s^−1 | 308,000 M^−1s^−1 | 23 | 12 | 110,000 M^−1s^−1 | 252 | 7,960 M^−1s^−1
O=C(O)CC(NC(=O)[C@@H]1CCCCN1C(=O)COc1cccc2ccccc12)C(=O)CF (stereo partly drawn) [Example 59] | 184 | 46,300 M^−1s^−1 | 14,400 M^−1s^−1 | 942 | 71 | 10,100 M^−1s^−1 | 90 | 17,600 M^−1s^−1
CC(C)C[C@H](NC(=O)COc1c(C(=O)O)ccc2ccccc12)C(=O)N[C@@H](CC(=O)O)C(=O)COc1c(F)c(F)cc(F)c1F [Example 167] | 501 | 21,300 M^−1s^−1 | 56,200 M^−1s^−1 | 89 | 42 | 52,500 M^−1s^−1 | 126 | 13,600 M^−1s^−1
CC(C)C[C@H](NC(=O)COc1ccccc1-c1ccccc1)C(=O)N[C@@H](CC(=O)O)C(=O)COP(=O)(c1ccccc1)c1ccccc1 [Example 161] | 98 | 86,400 M^−1s^−1 | 319,000 M^−1s^−1 | 19 | 30 | 149,000 M^−1s^−1 | 105 | 15,200 M^−1s^−1
CC(C)[C@H](NC(=O)COc1cccc2ccccc12)C(=O)N[C@@H](CC(=O)O)C(=O)COc1cc(C(F)(F)F)nn1-c1ccccc1 [Example 143] | 205 | 28,300 M^−1s^−1 | 121,000 M^−1s^−1 | 50 | 28 | 8,500 M^−1s^−1 | 37 | 14,500 M^−1s^−1
CC(C)[C@H](NC(=O)COc1ccccc1-c1ccccc1)C(=O)N[C@@H](CC(=O)O)C(=O)COC(=O)c1c(Cl)cccc1Cl [Example 150] | 263 | 43,700 M^−1s^−1 | 698,000 M^−1s^−1 | 16 | 9 | 400,000 M^−1s^−1 | 127 | 9,340 M^−1s^−1
CC(C)[C@H](NC(=O)COc1cccc2ccccc12)C(=O)N[C@@H](CC(=O)O)C(=O)COc1ccc(F)c(F)c1 [Example 72] | 718 | 1,620 M^−1s^−1 | 6,460 M^−1s^−1 | 90 | 1160 | 90 M⁻¹ s⁻¹ | 1040 | 120 M⁻¹ s⁻¹
CC(NC(=O)C(NC(=O)OCc1ccccc1)C(C)C)C(=O)NC(CC(=O)O)C(=O)CF (stereo not drawn) [refer., Cbz-ValAlaAsp-CH2F, reference compound] (Cbz-Val-Ala-Asp-CH2F; configuration not given here) | 15 | 214,000 M^−1s^−1 | 12,200 M^−1s^−1 | 820 | 594 | 2,950 M^−1s^−1 | 18 | 83,300 M^−1s^−1
CC(C)C[C@H](NC(=O)COc1c(C(=O)O)ccc2ccccc12)C(=O)N[C@@H](CC(=O)O)C(=O)COC(=O)c1c(Cl)cccc1Cl [Example 165, (3S)-3-[N-((2′-Carboxy-1′-Naphthyloxy)Acetyl)Leucinyl]-Amino-5-(2′,6′-Dichlorobenzoyloxy)-4-Oxopentanoic Acid] | 396 | 25,500 M^−1s^−1 | 335,000 M^−1s^−1 | 20 | 8 | 116,000 M^−1s^−1 | 89 | 13,100 M^−1s^−1
CC(C)[C@H](NC(=O)CCOc1cccc2ccccc12)C(=O)NC(CC(=O)O)C(=O)CF (mixture of isomers) [Example 55] | 246 | 33,200 M^−1s^−1 | 41,300 M^−1s^−1 | 186 | 39 | 59,400 M^−1s^−1 | 56 | 20,400 M^−1s^−1
CC(C)[C@H](NC(=O)COc1cccc2ccccc12)C(=O)N[C@@H](CC(=O)O)C(=O)COc1c(F)cccc1F [Example 71] | 193 | 53,900 M^−1s^−1 | 200,000 M^−1s^−1 | 39 | 38 | 9,980 M^−1s^−1 | 120 | 9,100 M^−1s^−1
CC(C)[C@H](NC(=O)COc1ccc2ccccc2c1)C(=O)N[C@@H](CC(=O)O)C(=O)COC(=O)c1c(Cl)cccc1Cl [Example 155] | 168 | 59,800 M^−1s^−1 | 206,000 M^−1s^−1 | 47 | 15 | 166,000 M^−1s^−1 | 136 | 7,910 M^−1s^−1
CC(C)[C@H](NC(=O)COc1cccc2ccccc12)C(=O)N[C@@H](CC(=O)O)C(=O)COc1ccccc1F [Example 65] | 305 | 6,020 M^−1s^−1 | 26,800 M^−1s^−1 | 102 | 336 | 0 M⁻¹ s⁻¹ | 354 | 230 M⁻¹ s⁻¹
CC(C)[C@H](NC(=O)COc1cccc2ccccc12)C(=O)N[C@@H](CC(=O)O)C(=O)COc1c(F)c(F)cc(F)c1F [Example 79] | 91 | 77,500 M^−1s^−1 | 268,000 M^−1s^−1 | 42 | 6 | 78,900 M^−1s^−1 | 34 | 30,200 M^−1s^−1
CC(C)[C@H](NC(=O)COc1cccc2ccccc12)C(=O)N[C@@H](CC(=O)O)C(=O)COc1c(F)ccc(F)c1F [Example 76] | 90 | 47,100 M^−1s^−1 | 188,000 M^−1s^−1 | 63 | 58 | 81,700 M^−1s^−1 | 81 | 17,000 M^−1s^−1
CC(C)[C@H](NC(=O)COc1cccc2ccccc12)C(=O)N[C@@H](CC(=O)O)C(=O)COP(C)(=O)c1cccc2ccccc12 (stereo partly drawn) [Example 110] | 59 | 64,900 M^−1s^−1 | 272,000 M^−1s^−1 | 35 | 15 | 150,000 M^−1s^−1 | 43 | 18,800 M^−1s^−1
CC(C)[C@H](NC(=O)COc1cccc2ccccc12)C(=O)N[C@@H](CC(=O)O)C(=O)COc1cccc(F)c1F [Example 68] | 355 | 14,800 M^−1s^−1 | 28,800 M^−1s^−1 | 110 | 383 | 1,610 M^−1s^−1 | 821 | 200 M⁻¹ s⁻¹
